Calls of active or inactive are those of the source. The calls are words filed in the database; no cut-off is given here.

These results are taken from ChEMBL document CHEMBL4819054, “Rotenoids and Other Specialized Metabolites from the Roots of Mirabilis multiflora: Opioid and Cannabinoid Receptor Radioligand Binding Affinities” (J Nat Prod, 2021).

What all share (conditions): Membrane
Experiment [1] has as its target Kappa-type opioid receptor (Homo sapiens) (UniProt P41145). The experiment in a line: Displacement of [3H]-U69593 from human kappa opioid receptor expressed in CHO-K1 cell membranes at 10 uM incubated for 60 mins by TopCount scintillation counting method relative to control. In general terms: In a radioligand displacement assay an active substance lowers the binding of a labelled ligand.

Experiment [2] has as its target Cannabinoid receptor 1 (Homo sapiens) (UniProt P21554). The experiment in a line: Displacement of [3H]-CP-55,940 from full-length recombinant human CB1R expressed in CHO-K1 cell membranes at 10 uM incubated for 90 mins by TopCount scintillation counting method relative to control.
Experiment [3] has as its target Cannabinoid receptor 2 (Homo sapiens) (UniProt P34972). The experiment in a line: Displacement of [3H]-CP-55,940 from full-length recombinant human CB2R expressed in CHO-K1 cell membranes at 10 uM incubated for 90 mins by TopCount scintillation counting method relative to control.
Experiment [4] deals with Delta-type opioid receptor (Homo sapiens) (UniProt P41143). The experiment in a line: Displacement of [3H]-DPDPE from human delta opioid receptor expressed in CHO-K1 cell membranes at 10 uM incubated for 60 mins by TopCount scintillation counting method relative to control.
Delta-type opioid receptor (Homo sapiens), sequence (P41143 whole entry): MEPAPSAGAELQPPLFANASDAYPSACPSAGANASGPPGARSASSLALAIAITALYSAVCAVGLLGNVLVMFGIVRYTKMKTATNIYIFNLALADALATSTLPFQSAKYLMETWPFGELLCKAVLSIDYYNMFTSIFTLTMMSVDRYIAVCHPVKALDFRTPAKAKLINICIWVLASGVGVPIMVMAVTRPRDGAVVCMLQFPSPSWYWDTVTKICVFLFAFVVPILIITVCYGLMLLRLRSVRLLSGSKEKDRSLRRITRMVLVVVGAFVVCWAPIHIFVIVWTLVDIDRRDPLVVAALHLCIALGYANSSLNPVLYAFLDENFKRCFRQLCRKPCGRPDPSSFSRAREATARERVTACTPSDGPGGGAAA
Experiment [5] concerns the target Mu-type opioid receptor (Homo sapiens) (UniProt P35372). The experiment in a line: Displacement of [3H]-DAMGO from human mu opioid receptor expressed in CHO-K1 cell membranes at 10 uM incubated for 60 mins by TopCount scintillation counting method relative to control.

Kappa-type opioid receptor (Homo sapiens), sequence (P41145 whole entry): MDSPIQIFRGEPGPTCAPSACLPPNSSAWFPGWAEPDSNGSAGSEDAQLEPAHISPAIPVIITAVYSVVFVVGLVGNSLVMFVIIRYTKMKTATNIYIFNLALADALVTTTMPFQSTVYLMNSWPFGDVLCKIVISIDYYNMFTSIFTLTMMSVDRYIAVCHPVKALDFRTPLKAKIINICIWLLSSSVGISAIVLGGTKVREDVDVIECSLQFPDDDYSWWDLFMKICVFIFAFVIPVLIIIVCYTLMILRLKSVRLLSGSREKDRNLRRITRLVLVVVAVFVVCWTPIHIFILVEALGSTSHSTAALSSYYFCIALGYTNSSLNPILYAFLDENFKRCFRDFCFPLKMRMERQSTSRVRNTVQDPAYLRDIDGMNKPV
Cannabinoid receptor 1 (Homo sapiens), sequence (P21554 whole entry): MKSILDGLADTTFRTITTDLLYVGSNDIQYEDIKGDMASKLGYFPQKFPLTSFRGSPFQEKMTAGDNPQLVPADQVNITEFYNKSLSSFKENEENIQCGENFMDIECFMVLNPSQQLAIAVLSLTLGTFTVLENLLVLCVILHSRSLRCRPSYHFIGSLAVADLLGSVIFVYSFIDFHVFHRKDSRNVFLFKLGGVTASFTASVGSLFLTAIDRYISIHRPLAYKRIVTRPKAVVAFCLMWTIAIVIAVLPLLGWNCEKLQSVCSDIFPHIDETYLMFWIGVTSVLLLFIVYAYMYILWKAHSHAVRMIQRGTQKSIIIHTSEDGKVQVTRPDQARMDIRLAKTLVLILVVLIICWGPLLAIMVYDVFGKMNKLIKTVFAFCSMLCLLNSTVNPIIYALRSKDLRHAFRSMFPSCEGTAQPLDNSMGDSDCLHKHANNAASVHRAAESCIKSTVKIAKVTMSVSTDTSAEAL
Mu-type opioid receptor (Homo sapiens), sequence (P35372 whole entry): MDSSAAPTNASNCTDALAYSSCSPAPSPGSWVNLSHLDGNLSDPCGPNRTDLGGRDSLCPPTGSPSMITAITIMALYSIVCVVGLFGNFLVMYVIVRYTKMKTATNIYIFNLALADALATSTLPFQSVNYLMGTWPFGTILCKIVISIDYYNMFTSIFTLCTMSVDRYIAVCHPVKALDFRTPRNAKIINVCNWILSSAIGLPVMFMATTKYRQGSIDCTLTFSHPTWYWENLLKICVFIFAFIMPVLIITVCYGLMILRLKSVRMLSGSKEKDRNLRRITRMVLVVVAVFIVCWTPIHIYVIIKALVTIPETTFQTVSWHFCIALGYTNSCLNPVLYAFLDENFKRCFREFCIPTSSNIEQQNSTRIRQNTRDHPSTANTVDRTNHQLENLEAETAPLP
Cannabinoid receptor 2 (Homo sapiens), sequence (P34972 whole entry): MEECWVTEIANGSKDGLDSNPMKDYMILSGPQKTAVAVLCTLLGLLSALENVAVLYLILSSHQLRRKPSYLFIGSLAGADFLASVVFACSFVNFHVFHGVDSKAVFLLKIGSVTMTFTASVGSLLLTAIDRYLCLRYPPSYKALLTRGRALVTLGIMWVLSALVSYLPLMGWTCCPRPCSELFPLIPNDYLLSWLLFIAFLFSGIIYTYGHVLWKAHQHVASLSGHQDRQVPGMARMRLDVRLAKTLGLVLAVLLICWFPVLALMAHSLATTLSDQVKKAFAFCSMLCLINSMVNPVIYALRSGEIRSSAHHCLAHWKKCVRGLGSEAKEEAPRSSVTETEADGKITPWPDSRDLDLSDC

As for `COc1c(C)c(O)c2c(c1C)O[C@H]1[C@H](OC)Oc3c(O)cccc3[C@]1(O)C2=O`, the Activity turned out to be 41.8% in experiment [1], 17% in experiment [2], 31.6% in experiment [4] and 55.3% in experiment [5]. Further, the outcome in experiment [3] was inactive.

As to `COc1cc2c(c(O)c1C)C(=O)[C@@]1(O)c3cccc(O)c3O[C@@H](OC)[C@@H]1O2`, the Activity in experiment [1] amounted to 28.9%; in experiment [2], 42.2%; in experiment [3] it was 7.4%; in experiment [4], 20.1%; in experiment [5], 39.6%.

For `COc1cc2c(c(O)c1C)C(=O)[C@@]1(O)c3cccc(O)c3OC[C@@H]1O2`, the Activity was determined as 21.8% in experiment [1], 26.3% in experiment [4] and 50.9% in experiment [5]. Besides, the result in experiment [2] and in experiment [3] was inactive.

For the compound `COc1cc2c(c(O)c1C)C(=O)[C@@]1(O)c3cccc(OC)c3O[C@@H](OC)[C@@H]1O2`, the Activity in experiment [1] was 30.5%; in experiment [3] it was 5.4%; in experiment [4] it was 12.3%; in experiment [5], 58.6%. Further, in experiment [2], the outcome was inactive.

For `CO[C@@H]1Oc2ccccc2-c2c1oc1cc(O)c(C)c(O)c1c2=O`, the Activity in experiment [1] stood at 48.8%; in experiment [4], 24.5%; in experiment [5], 64.5%. Moreover, the result in experiment [2] and in experiment [3] was inactive.

Turning to `COc1c(C)c(O)c2c(c1C)O[C@H]1COc3c(O)cccc3[C@]1(O)C2=O`, the Activity in experiment [1] came out at 38.9%; in experiment [4] it was 15.2%; in experiment [5] it was 45.9%. The result in experiment [2] and in experiment [3] was inactive.
